# According to US7696212B2, “Xanthine derivatives, the preparation thereof and their use as pharmaceutical compositions” (Boehringer Ingelheim Pharma GmbH and Co. KG, priority 2002, dated 2010):
# Counter-ions that a name gives are not always drawn.
# Biological target: T1, DPP-IV (Homo sapiens, UniProt P27487)
# T1 construct: an extract of human colon carcinoma cell line Caco-2 is used as the DPP IV source; endogenous in cells; host or cells: Caco-2 (human colon carcinoma), differentiated to induce DPP-IV expression; solubilised in Nonidet-P40 buffer
# T1 sequence (P27487 whole entry): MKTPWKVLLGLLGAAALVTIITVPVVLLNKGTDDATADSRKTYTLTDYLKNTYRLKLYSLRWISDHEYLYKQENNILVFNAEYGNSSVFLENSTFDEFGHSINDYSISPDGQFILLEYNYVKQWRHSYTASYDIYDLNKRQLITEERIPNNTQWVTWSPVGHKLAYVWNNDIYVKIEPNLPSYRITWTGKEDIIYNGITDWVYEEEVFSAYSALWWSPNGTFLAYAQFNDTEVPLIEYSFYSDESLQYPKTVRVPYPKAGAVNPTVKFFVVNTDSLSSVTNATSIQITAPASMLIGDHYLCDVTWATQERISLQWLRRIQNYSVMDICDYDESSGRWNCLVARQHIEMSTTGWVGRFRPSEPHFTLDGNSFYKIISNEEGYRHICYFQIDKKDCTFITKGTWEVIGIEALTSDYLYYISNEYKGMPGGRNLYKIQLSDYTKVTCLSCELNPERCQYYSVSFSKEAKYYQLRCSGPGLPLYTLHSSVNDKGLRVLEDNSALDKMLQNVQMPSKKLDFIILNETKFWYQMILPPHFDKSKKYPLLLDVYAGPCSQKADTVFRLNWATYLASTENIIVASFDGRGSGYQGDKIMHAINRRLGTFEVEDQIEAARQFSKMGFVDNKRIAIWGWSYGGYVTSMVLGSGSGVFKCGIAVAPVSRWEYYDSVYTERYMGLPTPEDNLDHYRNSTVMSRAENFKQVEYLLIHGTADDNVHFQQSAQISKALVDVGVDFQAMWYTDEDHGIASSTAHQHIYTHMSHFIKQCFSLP
# Assay: DPP-IV assay with extract of Caco-2 cells as DPP IV source, AFC substrate, fluorescence
# Format: biochemical
# Conditions: extract of human colon carcinoma cell line Caco-2 as DPP IV source; substrate 100 μM; 60 minutes at ambient temperature; read-out: DPP IV inhibition IC50
# Method: The differentiation of the cells in order to induce the DPP-IV expression was carried out as described by Reiher et al. in an article entitled “Increased expression of intestinal cell line Caco-2”, which appeared in Proc. Natl. Acad. Sci. Vol. 90, pages 5757-5761 (1993). The cell extract was obtained from cells solubilised in a buffer (10 mM Tris HCl, 0.15 M NaCl, 0.04 t.i.u. aprotinin, 0.5% Nonidet-P40, pH 8.0) by centrifuging at 35,000 g for 30 minutes at 4° C. (to remove cell debris).
# The DPP-IV assay was carried out as follows:
# 50 μl substrate solution (AFC; AFC is amido-4-trifluoromethylcoumarin), final concentration 100 μM, were placed in black microtitre plates. 20 μl of assay buffer (final concentrations 50 mM Tris HCl pH 7.8, 50 mM NaCl, 1% DMSO) was pipetted in. The reaction was started by adding 30 μl of solubilised Caco-2 protein (final concentration 0.14 μg of protein per well). The test substances to be investigated were typically added prediluted in 20 μl, and the volume of assay buffer was then reduced accordingly. The reaction was carried out at ambient temperature, incubating for 60 minutes. Then the fluorescence was measured in a Victor 1420 Multilabel Counter, the excitation wavelength being 405 nm and the emission wavelength being 535 nm. Blank readings (corresponding to 0% activity) were obtained in mixtures without any Caco-2 protein (volume replaced by assay buffer), control values (corresponding to 100% activity) were obtained in mixtures with no substance added. […]
row,Structure (SMILES),IC50
1,"CC#CCn1c(N2CCCC(N)C2)nc2c1c(=O)n(CC1=NC(C)(C(=O)OC)Cc3ccccc31)c(=O)n2C (centres unmarked) [1(1), 1-[(3-methoxycarbonyl-3-methyl-3,4-dihydro-isoquinolin-1-yl]methyl]-3-methyl-7-(2-butyn-1-yl)-8-(3-amino-piperidin-1-yl)-xanthine]",32 nM
2,"CC#CCn1c(N2CCCC(N)C2)nc2c1c(=O)n(Cc1nc3c(c4ccccc14)CCCC3)c(=O)n2C (centres unmarked) [1(4), 1-[(1,2,3,4-tetrahydro-phenanthridin-6-yl)methyl]-3-methyl-7-(2-butyn-1-yl)-8-(3-amino-piperidin-1-yl)-xanthine x trifluoroacetic acid]",5 nM
3,"CC#CCn1c(N2CCCC(N)C2)nc2c1c(=O)n(CC1=NC(C(F)(F)F)Cc3ccccc31)c(=O)n2C (centres unmarked) [1(7), 1-[(3-trifluoromethyl-3,4-dihydro-isoquinolin-1-yl)methyl]-3-methyl-7-(2-butyn-1-yl)-8-(3-amino-piperidin-1-yl)-xanthine x trifluoroacetic acid]",11 nM
4,"CC#CCn1c(N2CCCC(N)C2)nc2c1c(=O)n(Cc1ccc3nonc3c1)c(=O)n2C (centres unmarked) [1(15), 1-[(benzo[1,2,5]oxadiazol-5-yl)methyl]-3-methyl-7-(2-butyn-1-yl)-8-(3-amino-piperidin-1-yl)-xanthine]",11 nM
5,"CC#CCn1c(N2CCC[C@@H](N)C2)nc2c1c(=O)n(Cc1nc3ccccc3c3ccccc13)c(=O)n2C1CC1 [1(20), 1-[(phenanthridin-6-yl)methyl]-3-cyclopropyl-7-(2-butyn-1-yl)-8-((R)-3-amino-piperidin-1-yl)-xanthine]",10 nM
6,"CC#CCn1c(N2CCCC(N)C2)nc2c1c(=O)n(Cc1nc3ccccc3c3ncccc13)c(=O)n2C (centres unmarked) [1(25), 1-[(benzo[h][1,6]naphthyridin-5-yl)methyl]-3-methyl-7-(2-butyn-1-yl)-8-(3-amino-piperidin-1-yl)-xanthine]",7 nM
7,"CC#CCn1c(N2CCC[C@@H](N)C2)nc2c1c(=O)n(Cc1cc3nccnc3c3ccccc13)c(=O)n2C [1(30), 1-[(benzo[f]quinoxalin-6-yl)methyl]-3-methyl-7-(2-butyn-1-yl)-8-((R)-3-amino-piperidin-1-yl)-xanthine]",3 nM
8,"C/C=C/Cn1c(N2CCC[C@@H](N)C2)nc2c1c(=O)n(CC1=NCC(=O)Nc3ccccc31)c(=O)n2C [Example 1(2), 1-[(2-oxo-2,3-dihydro-1H-benzo[e][1,4]diazepin-5-yl)methyl]-3-methyl-7-((E)-2-buten-1-yl)-8-((R)-3-amino-piperidin-1-yl)-xanthine]",6 nM
9,"CC(C)=CCn1c(N2CCCC(N)C2)nc2c1c(=O)n(CC1=CS(=O)(=O)N(C)c3ccccc31)c(=O)n2C (centres unmarked) [Example 1, 1-[(1-methyl-2,2-dioxo-1H-benzo[c][1,2]thiazin-4-yl)methyl]-3-methyl-7-(3-methyl-2-buten-1-yl)-8-(3-amino-piperidin-1-yl)-xanthine]",13 nM
10,"CC(C)=CCn1c(N2CCCC(N)C2)nc2c1c(=O)n(/C=C1\NC(=O)c3ccccc31)c(=O)n2C (centres unmarked) [Example 3, 1-[(3-oxo-2,3-dihydro-isoindol-1-ylidene)methyl]-3-methyl-7-(3-methyl-2-buten-1-yl)-8-(3-amino-piperidin-1-yl)-xanthine]",20 nM

# The next lines start with the values.
row,IC50,Structure (SMILES)
1,5 nM,"CC#CCn1c(N2CCCC(N)C2)nc2c1c(=O)n(Cc1nc3ccccc3c3ccccc13)c(=O)n2C (centres unmarked) [1(3), 1-[(phenanthridin-6-yl)methyl]-3-methyl-7-(2-butyn-1-yl)-8-(3-amino-piperidin-1-yl)-xanthine-dihydrochloride]"
2,4 nM,"CC#CCn1c(N2CCC[C@@H](N)C2)nc2c1c(=O)n(CC1=Nc3ccccc3Oc3ccccc31)c(=O)n2C [1(8), 1-[(dibenzo[b,f][1,4]oxazepin-11-yl)methyl]-3-methyl-7-(2-butyn-1-yl)-8-((R)-3-amino-piperidin-1-yl)-xanthine]"
3,8 nM,"CC#CCn1c(N2CCCC(N)C2)nc2c1c(=O)n(CC1=Nc3ccccc3CN1)c(=O)n2C (centres unmarked) [1(10), 1-[(3,4-dihydro-quinazolin-2-yl)methyl]-3-methyl-7-(2-butyn-1-yl)-8-(3-amino-piperidin-1-yl)-xanthine]"
4,14 nM,"CC#CCn1c(N2CCCC(N)C2)nc2c1c(=O)n(CC1=Nc3ccccc3N(C)c3ccccc31)c(=O)n2C (centres unmarked) [1(12), 1-[(5-methyl-5H-dibenzo[b,e][1,4]diazepin-11-yl)methyl]-3-methyl-7-(2-butyn-1-yl)-8-(3-amino-piperidin-1-yl)-xanthine]"
5,7 nM,"CC#CCn1c(N2CCCC(N)C2)nc2c1c(=O)n(Cc1nc3ccccc3c3ccnn13)c(=O)n2C (centres unmarked) [1(26), 1-[(pyrazolo[1,5-c]quinazolin-5-yl)methyl]-3-methyl-7-(2-butyn-1-yl)-8-(3-amino-piperidin-1-yl)-xanthine]"
6,2 nM,"CC#CCn1c(N2CCCC(N)C2)nc2c1c(=O)n(Cc1nc3ncccc3c3ccccc13)c(=O)n2C (centres unmarked) [1(27), 1-[(benzo[c][1,8]naphthyridin-6-yl)methyl]-3-methyl-7-(2-butyn-1-yl)-8-(3-amino-piperidin-1-yl)-xanthine]"
7,2 nM,"CC#CCn1c(N2CCC[C@@H](N)C2)nc2c1c(=O)n(Cc1nc3cccnc3c3ccccc13)c(=O)n2C [1(28), 1-[(benzo[c][1,5]naphthyridin-6-yl)methyl]-3-methyl-7-(2-butyn-1-yl)-8-((R)-3-amino-piperidin-1-yl)-xanthine]"
8,3 nM,"CC#CCn1c(N2CCC[C@@H](N)C2)nc2c1c(=O)n(CC1=Nc3cccc4cccc(c34)N1)c(=O)n2C [1(29), 1-[(1H-perimidin-2-yl)methyl]-3-methyl-7-(2-butyn-1-yl)-8-((R)-3-amino-piperidin-1-yl)-xanthine]"
9,4 nM,CC#CCn1c(N2CCCC(N)C2)nc2c1c(=O)n(Cc1cn3c(ccc4ccccc43)n1)c(=O)n2C (centres unmarked) [1(32)]
10,4 nM,"CC#CCn1c(N2CCC[C@@H](N)C2)nc2c1c(=O)n(Cc1nc3ccccc3c3ccccc13)c(=O)n2C [1(33), 1-[(phenanthridin-6-yl)methyl]-3-methyl-7-(2-butyn-1-yl)-8-((R)-3-amino-piperidin-1-yl)-xanthine]"
11,6 nM,"CC#CCn1c(N2CCCC(N)C2)nc2c1c(=O)n(CC1=NCCOc3ccccc31)c(=O)n2C (centres unmarked) [Example 2, 1-[(2,3-dihydro-benzo[f][1,4]oxazepin-5-yl)methyl]-3-methyl-7-(2-butyn-1-yl)-8-(3-amino-piperidin-1-yl)-xanthine]"

# Test system: rats
# Assay: Tolerability after oral administration to rats (behaviour)
# Format: in vivo, rat
# Conditions: 10 mg/kg by oral route
row,Structure (SMILES),changes in the animals' behaviour
1,"C/C=C/Cn1c(N2CCC[C@@H](N)C2)nc2c1c(=O)n(CC1=NCC(=O)Nc3ccccc31)c(=O)n2C [Example 1(2), 1-[(2-oxo-2,3-dihydro-1H-benzo[e][1,4]diazepin-5-yl)methyl]-3-methyl-7-((E)-2-buten-1-yl)-8-((R)-3-amino-piperidin-1-yl)-xanthine]",no changes in the animals' behaviour could be detected

# Test system: not given
# Assay: not given
# Conditions: not given
row,melting point,Structure (SMILES)
1,200 to 205 °C,"CC(C)=CCn1c(N2CCCC(N)C2)nc2c1c(=O)n(CC1=CS(=O)(=O)N(C)c3ccccc31)c(=O)n2C (centres unmarked) [Example 1, 1-[(1-methyl-2,2-dioxo-1H-benzo[c][1,2]thiazin-4-yl)methyl]-3-methyl-7-(3-methyl-2-buten-1-yl)-8-(3-amino-piperidin-1-yl)-xanthine]"
